Results as given in patent publication US20180230160A1, “2-AMINO-7A-PHENYL-3,4,4A,5,7,7A-HEXAHYDROFURO[3,4-B]PYRIDINES AS BACE1 INHIBITORS” (H. Lundbeck A/S, priority 2015, published 2018).
Read-outs that look alike come from different tables or passages of the source.

What was measured:
Aβ40 peptide = assay: Assessment of Aβ peptide levels in rat brain and plasma following BACE1 inhibition (Aβ40 ELISA); type: in vivo; conditions: 3 hours post dose, vs vehicle
Experimental: Assessment of Aβ Peptide Levels in Rat Brain and Plasma Following BACE1 Inhibition. Animals.
(§1) Young adult Male Sprague Dawley rats of approximately 250 g weight were purchased from Charles River and received 0-30 mg/kg of vehicle (10% HP betaCD+1M MeSO4, pH 2.5) or test compounds (dissolved in vehicle) only by oral gavage (p.o). The compounds are dosed at a volume of 5 ml/kg. Cohorts of 5-10 animals were established for each treatment condition.
(§2) At T=180 minutes after initial dosing the animals were stunned and decapitated with a guillotine. Trunk-blood was sampled in EDTA coated tubes after decapitation of the animal. The blood was centrifuged at 2200G at 4° C. for 15 minutes and the plasma was collected and frozen at −80° C. The blood was aliquoted for Aβ ELISA and DMPK analysis. Immediately following sacrifice, the brain was extracted and split into 2 halves. The right hemibrains were snap frozen on dry ice and stored at −80° C. The left half was dissected; with the front forebrain taken for Aβ ELISA and the remainder used for DMPK analysis. These samples were also snap frozen on dry ice and stored at −80° C. until use for analysis.
The cortex samples were thawed slightly on wet ice before they were homogenized with a small volume dispersing instrument (T10 basic ULTRA-TURRAX®) which was set at speed 5 for approximately 5-7 sec. The tissue was processed in a 10 times volume of the weight, for example 100 mg of tissue was homogenized in 1000 μL of Homogenization buffer. Homogenization buffer: 50 ml Milli Q water+50 nM NaCl+0.2% Diethylamin (DEA)+1 tablet of Complete Protease inhibitor cocktail+1 nM 4-(2-aminoethyl) benzenesulfonyl fluoride hydrochloride irreversible serine protease inhibitor (AEBSF).
After homogenization 450 μL aliquots of the samples are collected into a 1.5 ml Eppendorf tube and placed on wet ice, 0.5% NP-40 (50 ul) was added to all samples and then they were incubated on ice for 30 min. After which all samples were sonicated using an Ultrasonic homogenizer with 20 kHz homogeneous sound (SONOPLUS HD2070, Bandelin Electronic) 10 pulse set at 12-13% power to extract all the Aβ species. The samples were then centrifuged (Ole Dich 157 MPRF Micro centrifuge) at 20000G for 20 minutes at 4° C. After centrifugation 285 μL of the supernatant was pipetted into 600 μL microtubes tubes and neutralized with 15 μL of 1M Tris-HCL buffer.
WAKO 294-62501 Human/Rat Abeta amyloid (40) kit was used for all ELISA analyses. 30 μL plasma samples or 30 μL of the cortex supernatants generated as described above were placed in 600 μL microtubes tubes on wet ice. To this 30 μL of 8M urea (AppliChem A1049, 9025) was added to generate a 2-fold dilution. Both plasma and cortex supernatants were incubated on ice for 30 min. Standard rows were prepared from the standard peptide stock provided in the kit and standard diluent containing 1.6M urea (200 μL 8M urea+800 μL of standard diluent) and 0.8M urea (400 μL 8M Urea+3600 μL Standard diluent). A serial 2-fold dilution of Aβ40 from 100 pmol/ml to 0 pmol/L was prepared for the assay.
After incubation with urea, all samples were further diluted by addition of 5 times standard diluent from the Kit. This was done by adding 240 μL Standard Diluent to 60 μL sample/urea mixture, which was then mixed well. 100 μL of each diluted sample was pipetted into designated wells of the ELISA plate in duplicates. The plate was then covered and incubated overnight at 4° C. The following day, the ELISA kit was brought to room temperature before use. The incubated plate was washed 5 times with the 20× washing solution diluted in Milli Q water. 100 μL HRP-conjugate was applied to each well, and the plate was covered and incubates at 4° C. for 1 hr. The wash was repeated again for 5 times. 100 μL 3,3′,5,5′-Tetramethylbenzidine (TMB) solution was applied to each well and the plate was covered and incubated in the dark at room temperature for 30 minutes. […]

[1] = Compound exposure in rat brain and plasma after oral dosing (DMPK analysis); type: in vivo; conditions: male, Sprague Dawley, 3 hours post dose; for concentration at 3 h: read-out: Exp (exposure); for Kp at 3 h: brain/plasma, read-out: Brain/Plasma ratio
Experimental: as §1, §2
The results of the administration of representative Compounds of Examples 1, 2, 5, […], of brain and plasma samples collected at 3 hours post dose and then following exposures, as described above, are tabulated below.

P-gp (MDR1) = assay: MDCK-MDR1 assay (permeability, efflux ratio); type: in vitro ADME; conditions: dog, Papp BA/Papp AB, 60-minute incubation
Experimental: The permeability of the test compounds was assessed in MDCK-MDR1 cells that were cultured to confluency (4-6 days) in a 96 transwell plate. Test compounds were diluted with the transport buffer (HBSS+1% BSA) to a concentration of 0.5 μM and applied to the apical or basolateral side of the cell monolayer. Permeation of the test compounds from A to B direction or B to A direction was determined in triplicate over a 60-minute incubation time at 37° C. and 5% CO2 with a relative humidity of 95%. Test compounds were quantified by LC-MS/MS analysis based on the peaks area ratios of analyte/IS in both the receiver and donor wells of the transwell plate. The apparent permeability coefficient Papp (cm/s) was calculated using the equation: […]
Where dCr/dt is the cumulative concentration of compound in the receiver chamber as a function of time (μM/s); Vr is the solution volume in the receiver chamber (0.05 mL on the apical side; 0.25 mL on the basolateral side); A is the surface area for the transport, i.e. 0.0804 cm^2 for the area of the monolayer; CO is the initial concentration in the donor chamber (μM).

human BACE1 [2] = target: T1, human BACE1 (Homo sapiens, UniProt P56817); assay: BACE1 binding assay (SPA-based radioligand binding); design: biotin (biotinylated form); made in house; host or cells: Freestyle HEK293 cells; conditions: pH 4.5, 10 nM radioligand, Ki=IC50/(1+L/Kd)
T1 sequence (P56817 46-501): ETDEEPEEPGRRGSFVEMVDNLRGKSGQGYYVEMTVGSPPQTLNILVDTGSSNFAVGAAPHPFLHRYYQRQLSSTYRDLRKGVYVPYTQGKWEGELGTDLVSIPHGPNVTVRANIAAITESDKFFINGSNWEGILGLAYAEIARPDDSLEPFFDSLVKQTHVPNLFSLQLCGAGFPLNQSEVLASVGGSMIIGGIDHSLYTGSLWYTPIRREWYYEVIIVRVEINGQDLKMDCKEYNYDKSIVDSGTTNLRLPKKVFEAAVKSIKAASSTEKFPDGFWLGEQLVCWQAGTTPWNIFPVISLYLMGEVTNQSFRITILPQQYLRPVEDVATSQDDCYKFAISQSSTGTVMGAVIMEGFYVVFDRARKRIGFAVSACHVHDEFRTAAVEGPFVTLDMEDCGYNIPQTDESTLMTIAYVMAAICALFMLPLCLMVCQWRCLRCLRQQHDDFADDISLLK
Experimental: The binding assay was performed as SPA-based assay using a biotinylated form of human BACE1 recombinantly expressed and subsequently purified from Freestyle HEK293 cells. The binding assay was run in a 50 mM sodium acetate buffer, pH 4.5 containing 50 mM NaCl and 0.03% Tween-20 in white clear bottom 384 plates (Corning #3653). 10 nM (final concentration) radioligand ([^3H]—N-((1S,2R)-1-benzyl-3-cyclopropylamino-2-hydroxy-propyl)-5-(methanesulfonyl-methyl-amino)-N—((R)-1-phenyl-ethyl)-isophthalamide) (TRQ11569 purchased from GE Healthcare) was mixed with test compound at a given concentration, 6 nM (final concentration) human BACE1 and 25 μg Streptavidin coated PVT core SPA beads (RPNQ0007, GE Healthcare Life Sciences) in a total volume of 40 μl. Several concentrations of each test compound were tested in the assay for […] determination. The plates were incubated for one hour at room temperature and counted in a Wallac Trilux counter. Total and non-specific binding were determined using buffer and 1 μM (final concentration) of the high affinity BACE1 reference inhibitor (S)-6-[3-chloro-5-(5-prop-1-ynyl-pyridin-3-yl)-thiophen-2-yl]-2-imino-3,6-dimethyl-tetrahydro-pyrimidin-4-one, respectively. For each test compound, a 1050 value (the concentration mediating 50% inhibition of the specific binding of the radioligand) was determined from concentration-response curve and used to calculate the Ki from the equation Ki=IC50/(1+L/Kd), where L and Kd are the final concentration of the radioligand used in the assay and the dissociation constant of the radioligand, respectively. The Kd of the radioligand was determined from saturation binding experiments.

human BACE1 [3] = target: T1, human BACE1; assay: BACE1 efficacy assay (FRET-based, commercial BACE1 kit); type: biochemical; design: purchased Life Technologies P2985; conditions: 10 μM test compound
Experimental: The efficacy assay was performed as a FRET-based assay using a commercially available BACE1 kit (Life Technologies, P2985). 2 μl test compound at 10 μM (final concentration) and 15 μl BACE1 enzyme from the kit (final concentration 3 nM) were preincubated for 15 minutes at room temperature before addition of 15 μl of substrate from the kit (250 nM final concentration) and incubated for additional 90 minutes at room temperature. The assay plate was subsequently read in a Pherastar (Ex540/Em590). The enzyme activity observed in presence of test compound were normalized to the enzyme activity observed in presence of buffer and 10 μM (final concentration) of the high affinity BACE1 reference inhibitor (S)-6-[3-Chloro-5-(5-prop-1-ynyl-pyridin-3-yl)-thiophen-2-yl]-2-imino-3,6-dimethyl-tetrahydropyrimidin-4-one, respectively. The efficacy of the test compounds was evaluated at 10 μM (final concentration) and defined as the percent inhibition of the enzyme activity using the equation % inhibition=100%−normalized enzyme activity in percent.

C[C@]1(F)C[C@]2(F)COC[C@]2(c2cc(NC(=O)c3ccc(F)cn3)ccc2F)N=C1N [Example 2, N-(3-((3S,4aR,7aS)-2-amino-3,4a-difluoro-3-methyl-3,4,4a,5,7,7a-hexahydrofuro[3,4-b]pyridin-7a-yl)-4-fluorophenyl)-5-fluoropicolinamide]
Aβ40 reduction (Aβ40 peptide; Brain, 10 mg/kg p.o.): 25% | Aβ40 reduction (Aβ40 peptide; Brain, 30 mg/kg p.o.): 24% | Aβ40 reduction (Aβ40 peptide; Plasma, 10 mg/kg p.o.): 48% | Aβ40 reduction (Aβ40 peptide; Plasma, 30 mg/kg p.o.): 47% | concentration at 3 h ([1]; Brain, 10 mg/kg p.o.): 37 ng/g | concentration at 3 h ([1]; Brain, 30 mg/kg p.o.): 136 ng/g | concentration at 3 h ([1]; Plasma, 10 mg/kg p.o.): 69 ng/g | concentration at 3 h ([1]; Plasma, 30 mg/kg p.o.): 244 ng/g | Kp at 3 h ([1]; 10 mg/kg p.o.): 0.54 | Kp at 3 h ([1]; 30 mg/kg p.o.): 0.56 | efflux ratio at 60 min, 0.5 μM (P-gp (MDR1)): 1.27 | Ki (human BACE1 [2]): 31 nM

COc1cnc(C(=O)Nc2ccc(F)c([C@]34COC[C@@]3(F)C[C@](C)(F)C(N)=N4)c2)cn1 [Example 5, N-(3-((3S,4aR,7aS)-2-amino-3,4a-difluoro-3-methyl-3,4,4a,5,7,7a-hexahydrofuro[3,4-b]pyridin-7a-yl)-4-fluorophenyl)-5-methoxypyrazine-2-carboxamide]
Aβ40 reduction (Aβ40 peptide; Brain, 10 mg/kg p.o.): 40% | Aβ40 reduction (Aβ40 peptide; Brain, 30 mg/kg p.o.): 47% | Aβ40 reduction (Aβ40 peptide; Plasma, 10 mg/kg p.o.): 41% | Aβ40 reduction (Aβ40 peptide; Plasma, 30 mg/kg p.o.): 45% | concentration at 3 h ([1]; Brain, 10 mg/kg p.o.): 204 ng/g | concentration at 3 h ([1]; Brain, 30 mg/kg p.o.): 695 ng/g | concentration at 3 h ([1]; Plasma, 10 mg/kg p.o.): 174 ng/g | concentration at 3 h ([1]; Plasma, 30 mg/kg p.o.): 598 ng/g | Kp at 3 h ([1]; 10 mg/kg p.o.): 1.17 | Kp at 3 h ([1]; 30 mg/kg p.o.): 1.16 | efflux ratio at 60 min, 0.5 μM (P-gp (MDR1)): 0.91 | Ki (human BACE1 [2]): 17 nM

C[C@@]1(F)C[C@]2(F)COC[C@]2(c2cc(NC(=O)c3ccc(F)cn3)ccc2F)N=C1N [Example 12, N-(3-((3R,4aR,7aS)-2-amino-3,4a-difluoro-3-methyl-3,4,4a,5,7,7a-hexahydrofuro[3,4-b]pyridin-7a-yl)-4-fluorophenyl)-5-fluoropicolinamide]
efflux ratio at 60 min, 0.5 μM (P-gp (MDR1)): 1.67 | inhibition at 10 µM (human BACE1 [3]): 103% | Ki (human BACE1 [2]): 24 nM

COc1ccc(C(=O)Nc2ccc(F)c([C@]34COC[C@H]3C[C@](F)(CF)C(N)=N4)c2)nc1 [Example 15, N-(3-((3R,4aS,7aS)-2-amino-3-fluoro-3-(fluoromethyl)-3,4,4a,5-tetrahydrofuro[3,4-b]pyridin-7a-yl)-4-fluorophenyl)-5-methoxypicolinamide]
efflux ratio at 60 min, 0.5 μM (P-gp (MDR1)): 1.19 | inhibition at 10 µM (human BACE1 [3]): 111% | Ki (human BACE1 [2]): 65 nM

NC1=N[C@@]2(c3cc(NC(=O)c4ccc(F)cn4)ccc3F)COC[C@H]2C[C@]1(F)CF [Example 16, N-(3-((3R,4aS,7aS)-2-amino-3-fluoro-3-(fluoromethyl)-3,4,4a,5-tetrahydrofuro[3,4-b]pyridin-7a-yl)-4-fluorophenyl)-5-fluoropicolinamide]
efflux ratio at 60 min, 0.5 μM (P-gp (MDR1)): 0.97 | inhibition at 10 µM (human BACE1 [3]): 110% | Ki (human BACE1 [2]): 88 nM

COc1ccc(C(=O)Nc2cc(F)c(F)c([C@]34COC[C@H]3C[C@](F)(CF)C(N)=N4)c2)nc1 [Example 17, N-[3-[(3R,4aS,7aS)-2-amino-3-fluoro-3-(fluoromethyl)-4,4a,5,7-tetrahydrofuro[3,4-b]pyridin-7a-yl]-4,5-difluoro-phenyl]-5-methoxy-pyridine-2-carboxamide]
efflux ratio at 60 min, 0.5 μM (P-gp (MDR1)): 1.25 | inhibition at 10 µM (human BACE1 [3]): 105% | Ki (human BACE1 [2]): 99 nM

COc1cnc(C(=O)Nc2cc(F)c(F)c([C@]34COC[C@H]3C[C@](F)(CF)C(N)=N4)c2)cn1 [Example 18, N-[3-[(3R,4aS,7aS)-2-amino-3-fluoro-3-(fluoromethyl)-4,4a,5,7-tetrahydrofuro[3,4-b]pyridin-7a-yl]-4,5-difluoro-phenyl]-5-methoxy-pyrazine-2-carboxamide]
efflux ratio at 60 min, 0.5 μM (P-gp (MDR1)): 1.31 | inhibition at 10 µM (human BACE1 [3]): 105% | Ki (human BACE1 [2]): 110 nM

NC1=N[C@@]2(c3cc(NC(=O)c4ccc(F)cn4)ccc3F)COC[C@H]2C[C@@]1(F)CF [Example 20, N-(3-((3S,4aS,7aS)-2-amino-3-fluoro-3-(fluoromethyl)-3,4,4a,5-tetrahydrofuro[3,4-b]pyridin-7a-yl)-4-fluorophenyl)-5-fluoropicolinamide]
efflux ratio at 60 min, 0.5 μM (P-gp (MDR1)): 0.71 | inhibition at 10 µM (human BACE1 [3]): 103% | Ki (human BACE1 [2]): 140 nM
